The supplement of paper PMC10307832

Columns and labels:
Test in all cases: relative viability (nuclei count vs DMSO), 5 days (fraction); higher = more cells survive
Mirin + Bortezomib = compound: N=C1NC(=O)/C(=C/c2ccc(O)cc2)S1 [Mirin] + CC(C)C[C@H](NC(=O)[C@H](Cc1ccccc1)NC(=O)c1cnccn1)B(O)O [Bortezomib] (partner 0.002 µM)
Summary of the method: (§1)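 Relative viability is defined as nuclei in treated wells over nuclei in vehicle wells. Duplicate plates were run and medians reported. Lung cancer cell lines in 1536-well plates were dosed by pin tool one day after seeding, with one drug or with a fixed anchor-drug dose plus five library-drug doses (not always all listed) in √10 steps, and nuclei were counted after 5 days.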

[1] = compound: CCn1c(-c2nonc2N)nc2cnc(Oc3cccc(NC(=O)c4ccc(OCCN5CCOCC5)cc4)c3)cc21 + C[C@]1(O)C[C@@H](c2nc(-c3ccc4ccc(-c5ccccc5)nc4c3)c3c(N)nccn32)C1 [Linsitinib] (partner 1 µM)
Summary of the method: as §1

Mirin + Lapatinib = compound: N=C1NC(=O)/C(=C/c2ccc(O)cc2)S1 [Mirin] + CS(=O)(=O)CCNCc1ccc(-c2ccc3ncnc(Nc4ccc(OCc5cccc(F)c5)c(Cl)c4)c3c2)o1 [Lapatinib] (partner 2 µM)
Summary of the method: as §1

Mirin + Trametinib = compound: N=C1NC(=O)/C(=C/c2ccc(O)cc2)S1 [Mirin] + CC(=O)Nc1cccc(-n2c(=O)n(C3CC3)c(=O)c3c(Nc4ccc(I)cc4F)n(C)c(=O)c(C)c32)c1 [Trametinib] (partner 0.02 µM)
Summary of the method: as §1

UMC-11
relative viability (Mirin + Bortezomib; first compound 0.25 µM): 0.876 | relative viability (Mirin + Bortezomib; first compound 0.7906 µM): 0.457 | relative viability (Mirin + Bortezomib; first compound 2.5 µM): 0.629 | relative viability (Mirin + Bortezomib; first compound 7.906 µM): 0.636 | relative viability (Mirin + Bortezomib; first compound 25 µM): 0.547 | relative viability ([1]; first compound 0.04 µM): 1.14 | relative viability ([1]; first compound 0.1265 µM): 1.07 | relative viability ([1]; first compound 0.4 µM): 0.915 | relative viability ([1]; first compound 1.265 µM): 0.322 | relative viability ([1]; first compound 4 µM): 0.337 | relative viability (Mirin + Lapatinib; first compound 0.25 µM): 0.958 | relative viability (Mirin + Lapatinib; first compound 2.5 µM): 0.985 | relative viability (Mirin + Lapatinib; first compound 7.906 µM): 0.548 | relative viability (Mirin + Lapatinib; first compound 25 µM): 0.684 | relative viability (Mirin + Trametinib; first compound 0.25 µM): 0.721 | relative viability (Mirin + Trametinib; first compound 0.7906 µM): 0.381 | relative viability (Mirin + Trametinib; first compound 2.5 µM): 0.778 | relative viability (Mirin + Trametinib; first compound 7.906 µM): 0.558 | relative viability (Mirin + Trametinib; first compound 25 µM): 0.496
